Drawing on article PMC8510124, “Design, Synthesis, Biological Evaluation and In Silico Study of Benzyloxybenzaldehyde Derivatives as Selective ALDH1A3 Inhibitors” (Molecules, 2021), this text covers remaining activity and IC50 for four compounds.

The target of experiment [1] is T1, ALDH1A3 (Homo sapiens, UniProt P47895).
T1 construct: recombinant, N-terminal (His)6 tag
T1 sequence (P47895 2-512): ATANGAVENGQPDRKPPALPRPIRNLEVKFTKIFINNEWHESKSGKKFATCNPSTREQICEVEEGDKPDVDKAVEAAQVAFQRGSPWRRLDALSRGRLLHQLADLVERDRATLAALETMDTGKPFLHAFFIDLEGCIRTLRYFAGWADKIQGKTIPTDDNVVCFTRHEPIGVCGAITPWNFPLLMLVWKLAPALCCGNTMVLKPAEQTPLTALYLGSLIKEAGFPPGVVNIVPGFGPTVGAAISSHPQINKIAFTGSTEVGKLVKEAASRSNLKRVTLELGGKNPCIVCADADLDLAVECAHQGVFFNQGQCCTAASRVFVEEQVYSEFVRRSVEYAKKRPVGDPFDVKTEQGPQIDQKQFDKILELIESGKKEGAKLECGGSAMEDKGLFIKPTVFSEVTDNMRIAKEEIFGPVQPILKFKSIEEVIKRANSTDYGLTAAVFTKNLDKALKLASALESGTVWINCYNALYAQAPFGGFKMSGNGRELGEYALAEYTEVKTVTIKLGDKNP
The experiment can be described thus: fluorimetric NADH assay, single point […], […] hexanal (near Km). It is filed as biochemical. As to conditions: read-out: Remaining Activity ± SE (%) at 10 μM Compound / ALDH1A3 / [S] near Km (10 μM Hex).

The target in experiment [2] is T1, ALDH1A3. The experiment can be described thus: fluorimetric NADH dehydrogenase assay, […] hexanal, IC50 curve. It is filed as biochemical. As to conditions: read-out: IC50 (μM) ± SE ALDH1A3.

SMILES strings stand for the structures.

`COc1cc(C=O)ccc1OC(=O)c1ccc(Cl)cc1` [ABMM-1, 4-Formyl-2-methoxyphenyl 4-Chlorobenzoate]: the remaining activity at 10 µM on ALDH1A3 [1] came out at 21.07 ± 0.1%.

Regarding `O=Cc1ccc(OCc2ccc(Cl)cc2)cc1` [ABMM-15, 4-((4-Chlorobenzyl)oxy)benzaldehyde], the IC50 on ALDH1A3 [2] is 0.23 ± 0.05 µM.

Regarding `COc1cc(C=O)ccc1OCc1ccc(Cl)cc1` [ABMM-16, 4-((4-Chlorobenzyl)oxy)-3-methoxybenzaldehyde], at ALDH1A3 [2], the IC50 came to 1.29 ± 0.1 µM.

In the case of `COc1cc(C=O)cc(OC)c1OC(=O)c1ccc(F)cc1` [ABMM-18, 4-Formyl-2,6-dimethoxyphenyl 4-Fluorobenzoate], the remaining activity at 10 µM on ALDH1A3 [1] came out at 16 ± 3.4%.

What is called IC50 is the concentration that gives 50% inhibition.
